Source: the NIST ThermoML archive (doi:10.1021/je060313v)

How the values were obtained:
[1] = refractive index (Na D-line) (dimensionless); conditions: 101.33 kPa, Liquid, Standard Abbe refractometry
[2] = for speed of sound / mass density / viscosity: 101.33 kPa, Liquid; for speed of sound: Sing-around technique in a fixed-path interferometer; for mass density: Vibrating tube method; for surface tension liquid-gas: Drop weight; for viscosity: Capillary tube (Ostwald / Ubbelohde) method

CCCCn1cc[n+](C)c1.COS(=O)(=O)[O-] [1-butyl-3-methylimidazolium methyl sulfate]
Conditions	mass density, [2] [kg/m3]	refractive index, [1]	speed of sound, [2] [m/s]	surface tension liquid-gas, [2] [mN/m]	viscosity, [2] [mPa·s]
278.15 K	1225.84	–	1708.3	–	–
283.15 K	1222.44	1.48351	1695.8	45.9	–
288.15 K	1219.03	1.48213	1683.4	45	–
293.15 K	1215.62	1.48076	1670.9	44.1	288.99
298.15 K	1212.22	1.47942	1658.4	43.3	213.19
303.15 K	1208.81	1.47805	1646	42.8	160.93
308.15 K	1205.41	1.47671	1633.5	42.3	123.73
313.15 K	1202.04	1.47536	1621.1	41.8	96.83
318.15 K	1198.66	1.474	1608.6	–	77.08
323.15 K	1195.34	1.47266	1596.1	–	62.22
328.15 K	1192.02	1.47132	1583.7	–	–
333.15 K	1188.73	1.47	1571.2	–	42.24
338.15 K	1185.45	1.46864	1558.8	–	–
343.15 K	1182.19	1.46725	1546.3	–	29.99
